Data as given in patent US9765075B2, “Substituted bridged urea analogs as sirtuin modulators” (GLAXOSMITHKLINE LLC, priority 2013, dated 2017).
Where two headings read alike, the source gives them in different places.

Molecular target: T1, SIRT1 (Homo sapiens, UniProt Q96EB6)
T1 sequence (Q96EB6 1-747): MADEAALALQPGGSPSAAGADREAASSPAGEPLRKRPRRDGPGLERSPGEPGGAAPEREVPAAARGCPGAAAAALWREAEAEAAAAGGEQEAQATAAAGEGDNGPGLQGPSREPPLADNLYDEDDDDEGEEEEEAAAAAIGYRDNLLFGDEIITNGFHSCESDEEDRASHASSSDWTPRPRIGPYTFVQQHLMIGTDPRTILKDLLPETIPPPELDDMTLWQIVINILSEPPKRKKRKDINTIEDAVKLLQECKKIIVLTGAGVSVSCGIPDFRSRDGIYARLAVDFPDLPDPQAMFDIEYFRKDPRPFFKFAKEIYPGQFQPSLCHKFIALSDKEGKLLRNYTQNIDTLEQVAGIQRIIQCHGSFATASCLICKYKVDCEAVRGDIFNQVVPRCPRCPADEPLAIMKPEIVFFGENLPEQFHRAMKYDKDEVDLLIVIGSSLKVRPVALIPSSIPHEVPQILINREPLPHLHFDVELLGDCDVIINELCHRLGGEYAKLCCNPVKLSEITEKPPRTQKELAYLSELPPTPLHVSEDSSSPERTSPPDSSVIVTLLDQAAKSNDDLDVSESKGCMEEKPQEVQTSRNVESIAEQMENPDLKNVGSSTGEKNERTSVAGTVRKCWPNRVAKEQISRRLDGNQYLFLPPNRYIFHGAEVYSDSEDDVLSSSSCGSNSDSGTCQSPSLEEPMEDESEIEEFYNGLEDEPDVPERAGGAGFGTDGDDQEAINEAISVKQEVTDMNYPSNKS
Assay: Trp mass spectrometry assay (SIRT1 activation)
Format: biochemical
Settings: for Emax: percent maximum fold activation of SIRT1, read-out: Tryp % Fold Act
Method in brief: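 Activation is expressed as EC1.5, the concentration raising activity 50% above DMSO control, and as maximum percent of control. Mass-spec readout was OAADPR or deacetylated Trp peptide after a formic-acid-quenched 25-min, 25 °C reaction: 10 nM bacterially expressed His-SIRT1, 0.5 μM acetyl-p53-derived peptide, 120 μM NAD+, pH 7.5 HEPES with […].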

[1] = concentration of test compound that results in 150% activation of SIRT1, Trp peptide substrate
[2] = Trp mass spectrometry assay, EC1.5 = concentration of test compound that results in 150% activation of SIRT1
[3] = Trp mass spectrometry assay, EC1.5 = concentration giving 150% activation of SIRT1

| Compound | Tryp AVG EC1.5 (μM) [1] | Emax (Trp peptide substrate) [%] | Emax (Trp mass spectrometry assay) [%] | Tryp AVG EC1.5 (μM) [2] | Tryp AVG EC1.5 (μM) [3] |
| --- | --- | --- | --- | --- | --- |
| CN(C)c1cccc(-c2ccc3c(n2)N(C(=O)Nc2cccc(-c4cnco4)c2)[C@@H]2CCCN3C2)c1 [Example 264] | A (EC1.5<1 μM) | ≥ 150 | – | – | – |
| Cc1ccc2ncccc2c1NC(=O)N1c2nc(-c3cccc(C(F)(F)F)c3)ccc2N2CC[C@H]1C2 [Example 84] | – | – | < 150 | – | – |
| N#Cc1cccc(-c2ccc3c(n2)N(C(=O)Nc2ccncn2)[C@H]2CCCN3C2)c1 [Example 352] | A (EC1.5<1 μM) | ≥ 150 | – | – | – |
| COc1cc(NC(=O)N2c3nc(-c4cncc(C)c4)ccc3N3CCC[C@H]2C3)ncn1 [EX-527, reference compound] | A (EC1.5<1 μM) | ≥ 150 | – | – | – |
| O=C(Nc1cnccn1)N1c2nc(-c3cccc(N4CC[C@H](F)C4)c3)ccc2N2CC[C@H]1C2 [Example 268] | A (EC1.5<1 μM) | ≥ 150 | – | – | – |
| Cc1nc(NC(=O)N2c3nc(-c4cccc(OC(F)(F)F)c4)ccc3N3CC[C@H]2C3)sc1C [Example 165] | – | – | ≥ 150 | A (EC1.5<1 μM) | – |
| Cc1nc(NC(=O)N2c3nc(-c4cncc(F)c4)ccc3N3CCC[C@H]2C3)sc1C [Example 471] | B (EC1.5 1-25 μM) | ≥ 150 | – | – | – |
| Cc1cc(NC(=O)N2c3nc(N4CC[C@H](N(C)C)C4)ccc3N3CC[C@H]2C3)cc(C)n1 [Example 245] | B (EC1.5 1-25 μM) | ≥ 150 | – | – | – |
| Cn1ccc(NC(=O)N2c3nc(-c4cccc(C(F)(F)F)c4)ccc3N3CCC[C@H]2C3)n1 [Example 36] | – | – | ≥ 150 | – | – |
| Cc1csc(NC(=O)N2c3nc(N4CCCC(C(F)(F)F)C4)ccc3N3CCC[C@H]2C3)n1 (stereo partly shown) [Example 297] | B (EC1.5 1-25 μM) | ≥ 150 | – | – | – |
| O=C(Nc1cc(-c2cnco2)ccn1)N1c2nc(-c3cccc(C(F)(F)F)c3)ccc2N2CC[C@H]1C2 [Example 589] | A (EC1.5<1 μM) | ≥ 150 | – | – | – |
| Cc1nn(C)cc1NC(=O)N1c2nc(-c3cccc(C(F)(F)F)c3)ccc2N2CC[C@H]1C2 [Example 92] | – | – | ≥ 150 | B (EC1.5 1-25 μM) | – |
| CC(=O)c1cc(F)c(NC(=O)N2c3nc(-c4cccc(C(F)(F)F)c4)ccc3N3CC[C@H]2C3)c(F)c1 [Example 78] | – | – | ≥ 150 | – | – |
| O=C(Nc1nnc(-c2ccccn2)o1)N1c2nc(-c3cccc(C(F)(F)F)c3)ccc2N2CC[C@H]1C2 [Example 720] | – | – | ≥ 150 | – | A (EC1.5<1 μM) |
| COc1cc(NC(=O)N2c3nc(-c4cccc(Cl)c4)ccc3N3CCC2CC3)nc(OC)n1 [Example 523] | A (EC1.5<1 μM) | ≥ 150 | – | – | – |
| Cc1nc(NC(=O)N2c3nc(-c4cncc(Cl)c4)ccc3N3CCC2CC3)sc1C [Example 554] | B (EC1.5 1-25 μM) | ≥ 150 | – | – | – |
| O=C(Nc1cccnn1)N1c2nc(-c3cccc(C(F)(F)F)c3)ccc2N2C[C@@H](O)[C@H]1C2 [Example 631] | – | – | ≥ 150 | – | B (EC1.5 1-25 μM) |
| O=C(Nc1ccccn1)N1c2nc(N3CCCC(C(F)(F)F)C3)ccc2N2CCC[C@H]1C2 (stereo partly shown) [Example 286] | A (EC1.5<1 μM) | ≥ 150 | – | – | – |
| Cc1cncc(NC(=O)N2c3nc(N4CCCC(C(F)(F)F)C4)ccc3N3CCC[C@H]2C3)c1 (stereo partly shown) [Example 289] | A (EC1.5<1 μM) | ≥ 150 | – | – | – |
| O=C(Nc1cncc(F)c1)N1c2nc(-c3cccc(C(F)(F)F)c3)ccc2N2CCC[C@@H]1C2 [Example 273] | A (EC1.5<1 μM) | ≥ 150 | – | – | – |
| O=C(Nc1cccnc1)N1c2nc(-c3cncc(Cl)c3)ccc2N2CCC1CC2 [Example 544] | B (EC1.5 1-25 μM) | ≥ 150 | – | – | – |
| O=C(Nc1ccc(F)cn1)N1c2nc(-c3ccnc(N4CC[C@H](F)C4)c3)ccc2N2CC[C@H]1C2 [Example 463] | A (EC1.5<1 μM) | ≥ 150 | – | – | – |
| COc1cc(NC(=O)N2c3nc(-c4cccc(N5CCC(C(F)(F)F)C5)c4)ccc3N3CC[C@H]2C3)ncn1 (stereo partly shown) [Example 320] | B (EC1.5 1-25 μM) | ≥ 150 | – | – | – |
| N#Cc1cncc(-c2ccc3c(n2)N(C(=O)Nc2ccncn2)[C@H]2CCCN3C2)c1 [Example 558] | B (EC1.5 1-25 μM) | ≥ 150 | – | – | – |

| Compound | Tryp AVG EC1.5 (μM) [1] | Emax (Trp peptide substrate) [%] | Emax (Trp mass spectrometry assay) [%] | Tryp AVG EC1.5 (μM) [2] | Tryp AVG EC1.5 (μM) [3] |
| --- | --- | --- | --- | --- | --- |
| Cc1ccc(-c2ccc3c(n2)N(C(=O)Nc2cccnc2)[C@H]2CCCN3C2)cn1 [Example 514] | B (EC1.5 1-25 μM) | ≥ 150 | – | – | – |
| O=C(Nc1cnccn1)N1c2nc(-c3cccnc3)ccc2N2CCC[C@H]1C2 [Example 454] | B (EC1.5 1-25 μM) | ≥ 150 | – | – | – |
| O=C(Nc1cccc(-c2ccsc2)n1)N1c2nc(-c3cccc(C(F)(F)F)c3)ccc2N2CC[C@H]1C2 [Example 653] | – | – | ≥ 150 | – | A (EC1.5<1 μM) |
| O=C(Nc1cncc(F)c1)N1c2nc(-c3cccc(C(F)(F)F)c3)ccc2S(=O)(=O)N2CC[C@H]1C2 [Example 460] | B (EC1.5 1-25 μM) | ≥ 150 | – | – | – |
| COc1nccc(NC(=O)N2c3nc(-c4cccc(C(F)(F)F)c4)ccc3N3CCC[C@H]2C3)n1 [Example 32] | – | – | ≥ 150 | – | – |
| CN(C)c1cccc(-c2ccc3c(n2)N(C(=O)Nc2ccc(F)cn2)[C@H]2CCCN3C2)c1 [Example 384] | B (EC1.5 1-25 μM) | ≥ 150 | – | – | – |
| Cn1nccc1-c1ccc2c(n1)N(C(=O)Nc1cnccn1)[C@H]1CCN2C1 [Example 414] | B (EC1.5 1-25 μM) | ≥ 150 | – | – | – |
| Cc1cc(OCC(O)CO)nc(NC(=O)N2c3nc(-c4cccc(Cl)c4)ccc3N3CC[C@H]2C3)n1 (stereo partly shown) [Example 55] | – | – | ≥ 150 | – | – |
| C#CCNc1nccc(NC(=O)N2c3nc(-c4cccc(C5(C(F)(F)F)N=N5)c4)ccc3N3CC[C@H]2C3)n1 [Example 809] | – | – | ≥ 150 | – | B (EC1.5 1-25 μM) |
| CCC(=O)c1cccc(NC(=O)N2c3nc(-c4cccc(C(F)(F)F)c4)ccc3N3CC[C@H]2C3)c1 [Example 714] | – | – | ≥ 150 | – | A (EC1.5<1 μM) |
| Cc1cncc(-c2ccc3c(n2)N(C(=O)Nc2ccccn2)[C@H]2CCCN3C2)c1 [Example 504] | A (EC1.5<1 μM) | ≥ 150 | – | – | – |
| CC(C)(C)OC(=O)NCc1cnnn1-c1cccc(NC(=O)N2c3nc(-c4cccc(C(F)(F)F)c4)ccc3N3CC[C@H]2C3)c1 [Example 638] | – | – | ≥ 150 | – | A (EC1.5<1 μM) |
| O=C(Nc1cccc2nccnc12)N1c2nc(-c3cccc(C(F)(F)F)c3)ccc2N2CC[C@H]1C2 [Example 83] | – | – | ≥ 150 | A (EC1.5<1 μM) | – |
| COc1cc(NC(=O)N2c3nc(-c4cncc(Cl)c4)ccc3N3CCC2CC3)nc(OC)n1 [Example 553] | B (EC1.5 1-25 μM) | ≥ 150 | – | – | – |
| O=C(Nc1nncs1)N1c2nc(-c3cccc(C(F)(F)F)c3)ccc2N2CC[C@H]1C2 [Example 646] | – | – | ≥ 150 | – | A (EC1.5<1 μM) |
| Cn1ncc2cc(NC(=O)N3c4nc(-c5cccc(OC(F)(F)F)c5)ccc4N4CC[C@H]3C4)ccc21 [Example 175] | – | – | ≥ 150 | A (EC1.5<1 μM) | – |
| O=C(Nc1ccccn1)N1c2nc(-c3ccc(Cl)c(Cl)c3)ccc2N2CC[C@H]1C2 [Example 332] | A (EC1.5<1 μM) | ≥ 150 | – | – | – |
| O=C(Nc1cccc(-c2cnco2)c1)N1c2nc(-c3cccc(Cl)c3)ccc2N2C[C@@H](O)[C@H]1C2 [Example 683] | – | – | ≥ 150 | – | A (EC1.5<1 μM) |
| Cc1nc(NC(=O)N2c3nc(-c4cccc(C(F)(F)F)c4)ccc3N3CC[C@@H]2C3)sc1C [Example 201] | – | – | ≥ 150 | B (EC1.5 1-25 μM) | – |
| NCc1ncc(-c2cccc(NC(=O)N3c4nc(-c5cccc(C(F)(F)F)c5)ccc4N4CC[C@H]3C4)c2)o1 [Example 725] | – | – | ≥ 150 | – | A (EC1.5<1 μM) |
| COc1cc(NC(=O)N2c3nc(-c4cncc(Cl)c4)ccc3N3CC[C@H]2C3)ncn1 [Example 250] | A (EC1.5<1 μM) | ≥ 150 | – | – | – |
| COc1cc(NC(=O)N2c3nc(-c4ccccc4C(F)(F)F)ccc3N3CC[C@H]2C3)ncn1 [Example 134] | – | – | < 150 | C (EC1.5>25 μM) | – |
| NS(=O)(=O)c1ccc(NC(=O)N2c3nc(-c4cccc(C(F)(F)F)c4)ccc3N3CC[C@H]2C3)cc1 [Example 643] | – | – | ≥ 150 | – | A (EC1.5<1 μM) |
| O=C(Nc1cccnc1)N1c2nc(-c3cnn(C4CCCC4)c3)ccc2N2CC[C@H]1C2 [Example 587] | B (EC1.5 1-25 μM) | ≥ 150 | – | – | – |
